Patent US9340577B2, “HLA binding motifs and peptides and their uses” (priority 1992, dated 2016)
No end group written: not given here.

How the values were obtained:
Assay in all cases: biochemical
Format in all cases: binding
HLA-A3.2 (A*0301) = HLA-A3.2 (A*0301) (Homo sapiens, UniProt P04439)
A*6801 = A*6801 (Homo sapiens, UniProt P04439, A269V/D185E/E176V/E277Q/E87N/F33Y/G231S/I121M/I166T/I218V/L180W/L300P/L318F/N151K/P208A/P217A/Q86R/R169H/T345S)
A31 (A*3101) = A31 (A*3101) (Homo sapiens, UniProt P04439, A270S/D185E/E176V/E277Q/F33T/G231S/G80R/H175R/I121M/I218V/I322F/K168Q/L300P/L318F/M331R/P217A/Q94H/R138Q/T323A/T345S/T97I/V358M)
HLA-A11 (A*1101) = HLA-A11 (A*1101) (Homo sapiens, UniProt P04439, A114D/D185E/E176A/F33Y/L180Q/S129P/T187R)
A*3301 = A*3301 (Homo sapiens, UniProt P04439, A270S/D185E/E176V/E277Q/E87N/F33T/G231S/H175R/I121M/I218V/I322F/K168Q/K210R/L300P/L318F/M331R/P217A/Q86R/Q94H/R138Q/T323A/T345S/T97I/V358M/Y195H)

Sequence | IC50 (HLA-A3.2 (A*0301)) [nM] | IC50 (A*6801) [nM] | IC50 (A31 (A*3101)) [nM] | IC50 (HLA-A11 (A*1101)) [nM] | IC50 (A*3301) [nM]
QVVPPINISK [Peptide 1589.23] | 1280 | 14 | 1560 | 11 | > 20000
RINTWKSLVK [Peptide 9017.0215] | 12 | 11500 | 632 | 10 | > 20000
RLECAIYYK [Peptide 1589.01] | 55 | 7020 | 150 | 30 | 6550
RLECVLMYK [Peptide 1589.12] | 8.7 | 3630 | 44 | 21 | 828
RLIERIRER [Peptide 9017.0124] | 57 | 983 | 14 | 407 | 1100
RLKAICIEK [Peptide 1587.01] | 43 | > 20000 | 20 | 520 | > 20000
RLLKETELRK [Peptide 9012.0248] | 27 | 12800 | 7010 | 52 | > 20000
RQMNMSQWIK [Peptide 1587.54] | 18 | 3110 | 41 | 7.5 | > 20000
RQMSMGQWIK [Peptide 1587.35] | 53 | 2230 | 48 | 6 | > 20000
RVLQGLPREK [Peptide 9012.0238] | 38 | 14400 | 88 | 35 | > 20000
SFFQNLQVIR [Peptide 9012.0232] | 3800 | 1400 | 432 | 3990 | 702
SFFSRTWCR [Peptide 1587.42] | 2380 | 28 | 2.2 | 155 | 3.5
SFFSRTWSR [Peptide 1587.16] | 1140 | 3.6 | 0.29 | 26 | 0.59
SFMELVRPFK [Peptide 88.0163] | 2020 | 1390 | 7.7 | 199 | 3.3
SFSELVRPFK [Peptide 1587.03] | 4250 | 5340 | 2 | 551 | 24
SIVGWPAVR [Peptide 9017.0058] | 1090 | 21 | 79 | 632 | 469
SQIEHWKLIR [Peptide 88.0213] | 16600 | 1330 | 515 | 86 | > 20000
SQWIKYRCDR [Peptide 88.0136] | 19100 | > 20000 | 418 | 11000 | 2710
SSCMGGMNR [Peptide 1556.59] | 206 | 110 | 54 | 16 | 39
SSIVGWPAVR [Peptide 9017.0185] | 3170 | 14 | 26 | 22 | 648
STAAALYWYR [Peptide 1587.32] | 89 | 4.1 | 2.4 | 4 | 28
STCMGGMNR [Peptide 1556.61] | 281 | 1630 | 157 | 1100 | 17900
STVSVGTAK [Peptide 1589.09] | 34 | 9.9 | 1760 | 6 | 16000
STWHWTGCNK [Peptide 1589.28] | 72 | 32 | 160 | 15 | 1900
SVAALYWYR [Peptide 88.0341] | 32 | 4.1 | 3.7 | 4.5 | 0.87
SVICFVNSK [Peptide 1587.15] | 109 | 8.6 | 1910 | 3.5 | 2850
SVRKLTEDR [Peptide 9017.0106] | 16800 | 226 | 48 | 7640 | 646
SVYGDTLEK [Peptide 78.0277] | 72 | 17 | > 20000 | 14 | > 20000

Sequence | IC50 (HLA-A3.2 (A*0301)) [nM] | IC50 (A*6801) [nM] | IC50 (A31 (A*3101)) [nM] | IC50 (HLA-A11 (A*1101)) [nM] | IC50 (A*3301) [nM]
SVYGETLEK [Peptide 78.0291] | 347 | 2620 | > 20000 | 166 | > 20000
SVYGTTLEK [Peptide 78.0282] | 19 | 15 | 8880 | 3.8 | > 20000
TALIKPKKR [Peptide 9017.0102] | > 20000 | 295 | 1740 | 2730 | 774
TFWNPPTTAR [Peptide 1556.02] | 18100 | 29 | 57 | 1500 | 40
TIAYIEYRK [Peptide 9017.0119] | 911 | 7.8 | 3300 | 24 | 892
TILWKDIFHR [Peptide 9012.0223] | 1970 | 26 | 33 | 10 | 11
TLWNPPTTAK [Peptide 1556.04] | 22 | 438 | 6830 | 107 | 2240
TLYAEPPK [Peptide 1556.12] | 734 | 1980 | > 20000 | 269 | > 20000
TQQLQDLFK [Peptide 88.0374] | 1700 | 6680 | > 20000 | 53 | 2000
TQQMLQVEGR [Peptide 88.0128] | > 20000 | 739 | 354 | 3000 | 1850
TTNCTYKGR [Peptide 1589.41] | > 20000 | 38 | 58 | 2210 | 165
TTSAELPK [Peptide 1556.23] | 19400 | 1400 | > 20000 | 221 | > 20000
TTTYSPALNK [Peptide 1556.41] | 102 | 18 | > 20000 | 2.5 | > 20000
TVHVYFDGNK [Peptide 1589.24] | 707 | 97 | > 20000 | 61 | > 20000
TVNEYNTHK [Peptide 1589.36] | 83 | 49 | 4120 | 20 | 2730
TVQVYFDGNK [Peptide 88.0202] | 1110 | 121 | 4620 | 14 | 15600
TVSAELPR [Peptide 1556.22] | > 20000 | 214 | 11500 | 1880 | 10100
TVSATQLVK [Peptide 1589.08] | 6.5 | 31 | 14600 | 4.4 | > 20000
VFADLRIVYR [Peptide 78.0073] | > 20000 | 197 | 31 | 2090 | 52
VFCGPANTGK [Peptide 88.0150] | 1950 | 3000 | 485 | 1660 | 811
VIDSPAGQA [Peptide 78.0316] | 13000 | 983 | 407 | 9430 | 913
VSIEWRLRR [Peptide 9017.0088] | 338 | 131 | 3.1 | 6.9 | 29
VSIEWRQRR [Peptide 9017.0089] | 1350 | 41 | 1.5 | 13 | 7.1
VTIKIGGQIR [Peptide 1516.05] | 13000 | 46 | 1140 | 389 | > 20000
VTIRVAGQVK [Peptide 1516.04] | 53 | 52 | 4600 | 21 | > 20000
VTIRVGGQLR [Peptide 1516.07] | 3260 | 28 | 32 | 17 | 9430
VTIYYGVPVWK [Peptide 1525.03] | 42 | 28 | 534 | 2.5 | > 20000
